In PubChem BioAssay AID2060506 (Molecular Pharmacology Branch, DTP, NCI, 2025):

Test system: 598228-144-R-J1-PDC complex spheroid viability
Assay: Anticancer human tumor 598228-144-R-J1-PDC patient-derived serous endometrial adenocarcinoma cell line growth inhibition [GQUAD]
Conditions: for IC50: curve of first compound; for viability, T/C: stronger effect = lower value
Procedure, shortened: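 Tumor cells were grown as complex spheroids with HUVEC endothelial cells and mesenchymal stem cells as stroma. G-quadruplex stabilizers were combined with targeted agents over half-log dilutions from near the clinical Cmax, or from 10 microM.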

[1] = second compound 0.0316 µM, first compound 0.0316 µM
[2] = second compound 0.0316 µM, first compound 0.1 µM
[3] = second compound 0.0316 µM, first compound 0.316 µM
[4] = second compound 0.0316 µM, first compound 1 µM
[5] = second compound 0.0316 µM, first compound 3.16 µM
[6] = second compound 0.0316 µM, first compound 10 µM
[7] = second compound 0.1 µM, first compound 0.0316 µM
[8] = second compound 0.1 µM, first compound 0.1 µM
[9] = second compound 0.1 µM, first compound 0.316 µM
[10] = second compound 0.1 µM, first compound 1 µM
[11] = second compound 0.1 µM, first compound 3.16 µM
[12] = second compound 0.1 µM, first compound 10 µM
[13] = second compound 0.316 µM, first compound 0.0316 µM
[14] = second compound 0.316 µM, first compound 0.1 µM
[15] = second compound 0.316 µM, first compound 0.316 µM
[16] = second compound 0.316 µM, first compound 1 µM
[17] = second compound 0.316 µM, first compound 3.16 µM
[18] = second compound 0.316 µM, first compound 10 µM
[19] = second compound 1 µM, first compound 0.0316 µM
[20] = second compound 1 µM, first compound 0.1 µM
[21] = second compound 1 µM, first compound 0.316 µM
[22] = second compound 1 µM, first compound 1 µM
[23] = second compound 1 µM, first compound 3.16 µM
[24] = second compound 1 µM, first compound 10 µM
[25] = second compound 3.16 µM, first compound 0.0316 µM
[26] = second compound 3.16 µM, first compound 0.1 µM
[27] = second compound 3.16 µM, first compound 0.316 µM
[28] = second compound 3.16 µM, first compound 1 µM
[29] = second compound 3.16 µM, first compound 3.16 µM
[30] = second compound 3.16 µM, first compound 10 µM
[31] = second compound 10 µM, first compound 0.0316 µM
[32] = second compound 10 µM, first compound 0.1 µM
[33] = second compound 10 µM, first compound 0.316 µM
[34] = second compound 10 µM, first compound 1 µM
[35] = second compound 10 µM, first compound 3.16 µM
[36] = second compound 10 µM, first compound 10 µM
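Note: spheroids exposed to the agents for one week before reading.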
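Throughout, for viability, T/C: percent of vehicle DMSO control viability so 100% = untreated growth.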

CC(C)(O)C1CCC(Nc2ccc3ncc(-c4cccc(C(F)(F)F)c4)n3n2)CC1 (stereo not given) + Cc1cnc(CNC(=O)c2c(=O)c3ccc(N4CCCN(C)CC4)nc3n3c2sc2ccccc23)cn1
IC50 (second compound 0.0316 µM): 1390 nM
IC50 (second compound 0.1 µM): 887 nM
IC50 (second compound 0.316 µM): 1200 nM
IC50 (second compound 1 µM): 1260 nM
IC50 (second compound 3.16 µM): 398 nM
IC50 (second compound 10 µM): < 31.6 nM
viability, T/C [1]: 76.5%
viability, T/C [2]: 93.7%
viability, T/C [3]: 73.2%
viability, T/C [4]: 62.9%
viability, T/C [5]: 16.7%
viability, T/C [6]: 17.8%
viability, T/C [7]: 73.7%
viability, T/C [8]: 69.2%
viability, T/C [9]: 70.2%
viability, T/C [10]: 46.4%
viability, T/C [11]: 22.9%
viability, T/C [12]: 10.9%
viability, T/C [13]: 77%
viability, T/C [14]: 53.6%
viability, T/C [15]: 74.7%
viability, T/C [16]: 56.1%
viability, T/C [17]: 17.7%
viability, T/C [18]: 17.6%
viability, T/C [19]: 64.2%
viability, T/C [20]: 45.9%
viability, T/C [21]: 58.2%
viability, T/C [22]: 65.8%
viability, T/C [23]: 13.6%
viability, T/C [24]: 18.3%
viability, T/C [25]: 51.2%
viability, T/C [26]: 56.8%
viability, T/C [27]: 55.2%
viability, T/C [28]: 32.6%
viability, T/C [29]: 0.22%
viability, T/C [30]: 0.19%
viability, T/C [31]: 25.4%
viability, T/C [32]: 0.49%
viability, T/C [33]: 33%
viability, T/C [34]: 0.33%
viability, T/C [35]: 0.26%
viability, T/C [36]: 5.96%

COc1cc(C2c3cc4c(cc3C(OC3OC5COC(C)OC5C(O)C3O)C3COC(=O)C23)OCO4)cc(OC)c1O (stereo not given) + Cc1cnc(CNC(=O)c2c(=O)c3ccc(N4CCCN(C)CC4)nc3n3c2sc2ccccc23)cn1
IC50 (second compound 0.0316 µM): 8680 nM
IC50 (second compound 0.1 µM): > 10000 nM
IC50 (second compound 0.316 µM): > 10000 nM
IC50 (second compound 1 µM): > 10000 nM
IC50 (second compound 3.16 µM): 3430 nM
IC50 (second compound 10 µM): 765 nM
viability, T/C [1]: 79.7%
viability, T/C [2]: 85.8%
viability, T/C [3]: 88.4%
viability, T/C [4]: 58.6%
viability, T/C [5]: 79.8%
viability, T/C [6]: 46.1%
viability, T/C [7]: 89.4%
viability, T/C [8]: 60.1%
viability, T/C [9]: 54.8%
viability, T/C [10]: 66.4%
viability, T/C [11]: 55.1%
viability, T/C [12]: 44.4%
viability, T/C [13]: 87.8%
viability, T/C [14]: 62%
viability, T/C [15]: 64.2%
viability, T/C [16]: 72.1%
viability, T/C [17]: 67%
viability, T/C [18]: 47.8%
viability, T/C [19]: 64.2%
viability, T/C [20]: 69.9%
viability, T/C [21]: 74.7%
viability, T/C [22]: 72%
viability, T/C [23]: 71.9%
viability, T/C [24]: 46.9%
viability, T/C [25]: 64.6%
viability, T/C [26]: 70.7%
viability, T/C [27]: 73.3%
viability, T/C [28]: 61.7%
viability, T/C [29]: 51.8%
viability, T/C [30]: 35%
viability, T/C [31]: 57.6%
viability, T/C [32]: 45.2%
viability, T/C [33]: 52.1%
viability, T/C [34]: 47.5%
viability, T/C [35]: 43.2%
viability, T/C [36]: 9.83%

COc1ccc([C@@H](O)c2cc(-c3ncnc4cc(N5CCOCC5)ccc34)c(F)cc2Cl)nn1 + Cc1cnc(CNC(=O)c2c(=O)c3ccc(N4CCCN(C)CC4)nc3n3c2sc2ccccc23)cn1
IC50 (second compound 0.0316 µM): 2710 nM
IC50 (second compound 0.1 µM): 1440 nM
IC50 (second compound 0.316 µM): 1040 nM
IC50 (second compound 1 µM): 794 nM
IC50 (second compound 3.16 µM): < 31.6 nM
IC50 (second compound 10 µM): < 31.6 nM
viability, T/C [1]: 105%
viability, T/C [2]: 80.9%
viability, T/C [3]: 66.6%
viability, T/C [4]: 66.5%
viability, T/C [5]: 52.3%
viability, T/C [6]: 33.9%
viability, T/C [7]: 67%
viability, T/C [8]: 70.4%
viability, T/C [9]: 64.3%
viability, T/C [10]: 51.7%
viability, T/C [11]: 43.5%
viability, T/C [12]: 33%
viability, T/C [13]: 63.2%
viability, T/C [14]: 63.5%
viability, T/C [15]: 62.7%
viability, T/C [16]: 49.1%
viability, T/C [17]: 35.3%
viability, T/C [18]: 25.5%
viability, T/C [19]: 65.9%
viability, T/C [20]: 61.6%
viability, T/C [21]: 51.6%
viability, T/C [22]: 46.1%
viability, T/C [23]: 42%
viability, T/C [24]: 14.2%
viability, T/C [25]: 50%
viability, T/C [26]: 36.8%
viability, T/C [27]: 41.9%
viability, T/C [28]: 31.6%
viability, T/C [29]: 20.9%
viability, T/C [30]: 0.39%
viability, T/C [31]: 35.2%
viability, T/C [32]: 40.2%
viability, T/C [33]: 19.1%
viability, T/C [34]: 0.71%
viability, T/C [35]: 0.33%
viability, T/C [36]: 0.26%

CCCS(=O)(=O)Nc1ccc(F)c(C(=O)c2c[nH]c3ncc(-c4ccc(Cl)cc4)cc23)c1F + Cc1[nH]c2ccc(F)cc2c1-c1nc2c3cccnc3c3ncccc3c2[nH]1
IC50 (second compound 0.0316 µM): 8500 nM
IC50 (second compound 0.1 µM): 8720 nM
IC50 (second compound 0.316 µM): > 10000 nM
IC50 (second compound 1 µM): 9540 nM
IC50 (second compound 3.16 µM): < 31.6 nM
IC50 (second compound 10 µM): 8200 nM
viability, T/C [1]: 130%
viability, T/C [2]: 118%
viability, T/C [3]: 135%
viability, T/C [4]: 115%
viability, T/C [5]: 114%
viability, T/C [6]: 39.2%
viability, T/C [7]: 103%
viability, T/C [8]: 112%
viability, T/C [9]: 97.9%
viability, T/C [10]: 106%
viability, T/C [11]: 95.5%
viability, T/C [12]: 43.6%
viability, T/C [13]: 122%
viability, T/C [14]: 126%
viability, T/C [15]: 102%
viability, T/C [16]: 103%
viability, T/C [17]: 129%
viability, T/C [18]: 51.6%
viability, T/C [19]: 80.9%
viability, T/C [20]: 71.9%
viability, T/C [21]: 84.2%
viability, T/C [22]: 76%
viability, T/C [23]: 92.2%
viability, T/C [24]: 48.8%
viability, T/C [25]: 39.3%
viability, T/C [26]: 48.6%
viability, T/C [27]: 43.1%
viability, T/C [28]: 56.4%
viability, T/C [29]: 56.2%
viability, T/C [30]: 31.1%
viability, T/C [31]: 73.4%
viability, T/C [32]: 65.1%
viability, T/C [33]: 78.5%
viability, T/C [34]: 70.4%
viability, T/C [35]: 83.5%
viability, T/C [36]: 45.1%

COc1cccc2c1C(=O)c1c(O)c3c(c(O)c1C2=O)CC(O)(C(=O)CO)CC3OC1CC(N)C(O)C(C)O1 (stereo not given) + Cc1[nH]c2ccc(F)cc2c1-c1nc2c3cccnc3c3ncccc3c2[nH]1
IC50 (second compound 0.0316 µM): 658 nM
IC50 (second compound 0.1 µM): 889 nM
IC50 (second compound 0.316 µM): 1040 nM
IC50 (second compound 1 µM): 418 nM
IC50 (second compound 3.16 µM): < 31.6 nM
IC50 (second compound 10 µM): 646 nM
viability, T/C [1]: 97.1%
viability, T/C [2]: 81.6%
viability, T/C [3]: 69.8%
viability, T/C [4]: 42.8%
viability, T/C [5]: 5.14%
viability, T/C [6]: 0.27%
viability, T/C [7]: 88.7%
viability, T/C [8]: 77.2%
viability, T/C [9]: 78.6%
viability, T/C [10]: 47%
viability, T/C [11]: 2.77%
viability, T/C [12]: 0.42%
viability, T/C [13]: 84.7%
viability, T/C [14]: 72.8%
viability, T/C [15]: 74.7%
viability, T/C [16]: 51.9%
viability, T/C [17]: 3.76%
viability, T/C [18]: 1.38%
viability, T/C [19]: 67.3%
viability, T/C [20]: 48.8%
viability, T/C [21]: 54.3%
viability, T/C [22]: 34.7%
viability, T/C [23]: 4.19%
viability, T/C [24]: 1.39%
viability, T/C [25]: 38.9%
viability, T/C [26]: 36.8%
viability, T/C [27]: 31.8%
viability, T/C [28]: 25.4%
viability, T/C [29]: 1.9%
viability, T/C [30]: 1.11%
viability, T/C [31]: 57.1%
viability, T/C [32]: 72.3%
viability, T/C [33]: 49%
viability, T/C [34]: 46.1%
viability, T/C [35]: 5.49%
viability, T/C [36]: 0.68%
